US5965544A, “Synthetic multivalent sLe^x containing polylactosamines and methods for use” (Glycim Oy, priority 1996, dated 1999)
“Also recorded” adds a separate entry of the source. Where two headings read alike, the source gives them in different places.

Tests used:
[1] = tested on: L-selectin-dependent lymphocyte adhesion to peritubular capillary endothelium (PTCE); experiment: Stamper-Woodruff binding assay: lymphocyte adhesion to peritubular capillary endothelium of rejecting kidney allografts; details: for inhibition of lymphocyte binding to PTCE (in words) / inhibitory capacity compared with other oligosaccharides (in words): rejecting kidney allografts; for IC50: read-out: IC50, inhibitory concentration preventing 50% of binding, L-selectin-dependent lymphocyte binding, rejecting rat kidney transplant
Excerpt: The animal models for cardiac transplant rejection and kidney transplant rejection utilized inbred WF (RT1^v) and DA (RT1^a) rat strains that were maintained in a colony and regularly tested for intrastrain acceptance of transplants as well as for the absence of intrastrain mixed lymphocyte culture. DA transplants into WF recipients were allografts, WF grafts to WF and DA grafts to DA served as syngeneic controls.
Small pieces of the removed syngeneic (DA to DA and WF to WF), allogeneic (DA to WF) transplants were mounted in Tissue Tek medium (Lab-Tek Productions, Naperville, Ill.) and snapfrozen in liquid nitrogen. Eight μm thick frozen sections were prepared within one hour prior to the use of the sections in the lymphocyte--endothelium binding assay (Renkonen, R. et al., Transplantation 47:577-579 (1989); Renkonen, R. et al., Am. J. Pathol. 137:643-651 (1990); Turunen J. P. et al., Transplantation 54:1053-1058 (1992); Turunen, J. P. et al., Eur. J. Immunol. 24:1130-1136 (1994); Turunen, J. P. et al., J. Exp. Med., 182:1133-1142 (1995)).
Single cell suspensions of mesenterical lymph node lymphocytes were made by mechanical disaggregation in RPMI 1640 medium (Gibco, Grand Island, N.Y.) supplemented with Hepes (25 mM) and 0.5% fetal calf serum and the cells were passed through a 50 μm pore size mesh. Over 99% of the cells were lymphocytes, and the lymphocyte population consisted of 80-90% CD3-positive T cells, 50-60% CD4-positive T cells, 25-35% CD8-positive T cells and 10-20% CD19-positive B cells, as analyzed by flow cytometric analyses and immunoperoxidase stainings from cytocentrifuge preparations.
3×10^6 cells in 100 μl of the medium were plated on top of the tissue sections using a wax pen circle to avoid escape of the fluid. The sections were rotated horizontally on a shaker at 60 rpm for 30 minutes at +4° C. After incubation, the medium was gently tapped away by an absorbent paper and the slides were fixed in 1.5% cold glutaraldehyde overnight. The slides were stained with thionine for 30 min. The excess thionine was gently washed away from the slides in PBS, and the slides were mounted with PBS-glycerol (1:1) or Aquamount Mountant, (BHD Limited, Poole, England). From these preparations the number of lymphocytes bound to various structures was determined. At least 10-20 high power fields were analyzed from each sample and 3-4 animals were included in each group.
The oligosaccharides were dissolved in the binding buffer, and the lymphocytes were incubated in these solutions for 30 min in +4° C. Thereafter, the lymphocytes at the saccharide solutions were added to the Stamper-Woodruff binding assay without further washings and the assay was conducted as described above.
The lymphocytes were, or were not, pretreated for 30 min with various oligosaccharide constructs and added to the Stamper-Woodruff binding assay. After a 30 min binding assay the loose cells were washed away and the number of bound cells were determined.
The binding assays consisted of three experiments performed on separate days.

[2] = tested on: L-selectin-dependent lymphocyte adhesion to cardiac endothelium; experiment: Stamper-Woodruff binding assay: lymphocyte adhesion to endothelium of rejecting cardiac transplants; format: cell-based, rat; details: rejecting cardiac allografts
Excerpt: The inhibition of lymphocyte adhesion to cardiac endothelium during acute rejection episodes by oligosaccharides was examined using the family of oligosaccharides synthesized by enzyme-aided synthesis in Example 2: monovalent sLex tetrasaccharide (1), divalent sLex decasaccharide (4) and tetravalent sLex 22-meric oligosaccharide (9) and their non-fucosylated sialyl lactosamine analogues (3, 8). […] Concomitantly the non-fucosylated sialyl-lactosamine glycans were without effect.
In parallel experiments the capacity of the tetravalent sLex glycans 9 and 17, and of the nonfucosylated analogs glycan 8 and glycan 16, were compared in inhibiting L-selectin-dependent lymphocyte adhesion to cardiac endothelium during acute rejection. The lymphocytes were preincubated for 30 min with varying concentrations of the oligosaccharides and used thereafter in the Stamper-Woodruff binding assay in the incubation media as described in Example 1.

[3] = tested on: L-selectin-dependent lymphocyte adhesion to cardiac endothelium; details: lymphocytes and rejecting rat heart endothelium, Turunen et al. 1995; cited from earlier work
CD22 = details: cited from earlier work
adhesion = details: Stoolman et al. 1984; cited from earlier work
[4] = tested on: P-selectin mediated inflammation; details: low concentrations; cited from earlier work
inflammation = details: cited from earlier work
[5] = tested on: mouse sperm adhesion to eggs; details: Litscher et al. 1995; cited from earlier work
[6] = listed as disialylated and difucosylated branched polylactosamine decasaccharide

NeuAcα2-3Galβ1-4GlcNAcβ1-3(NeuAcα2-3Galβ1-4GlcNAcβ1-6)Galβ1-4GlcNAcβ1-6(Galβ1-3)GalNAc-ol [Glycan 26]
inhibition of lymphocyte binding to PTCE (in words) [1]: practically devoid of inhibitory activity; also recorded: did not inhibit the lymphocyte binding at all; also recorded: did not possess any inhibitory activity | inhibition of lymphocyte binding to PTCE (in words) ([1]; listed as non-fucosylated O-glycosidic oligosaccharide alditol): did not possess any inhibitory activity

NeuAcα2-3Galβ1-4(Fucα1-3)GlcNAcβ1-3(NeuAcα2-3Galβ1-4(Fucα1-3)GlcNAcβ1-6)Galβ1-4GlcNAc [Glycan 4]
inhibition of lymphocyte adhesion to cardiac endothelium (in words) [2]: significantly reduce lymphocyte binding | published Stamper-Woodruff data compared with the present ones [3]: quite similar to the present ones | IC50 [1]: 1 µM | IC50 [1, 6]: 0.5 µM | inhibition of lymphocyte binding to PTCE (in words) [1]: able to inhibit the lymphocyte binding to PTCE significantly | inhibitory capacity compared with other oligosaccharides (in words) [1]: slightly weaker inhibitor than 28; also recorded: lesser inhibitory capacity than the alditol 28 | inhibitory capacity compared with other oligosaccharides (in words) [1, 6]: less effective inhibitor

CC(=O)N[C@H]1[C@H]([C@H](O)[C@H](O)CO)O[C@@](OC[C@H]2O[C@@H](O[C@H]3[C@H](O)[C@@H](NC(C)=O)C(O)O[C@@H]3CO)[C@H](O)[C@@H](O)[C@H]2O)(C(=O)O)C[C@@H]1O (stereo partly drawn) [NeuAca2-6GalB1-4GlcNAc]
binding / affinity to CD22 (CD22): binds specifically

fucoidin
concentration that blocked adhesion (adhesion): in the nM range

NeuAcα2-3Galβ1-4(Fucα1-3)GlcNAc [Glycan 1]
inhibition of lymphocyte adhesion to cardiac endothelium (in words) [2]: significantly reduce lymphocyte binding | inhibition of short-term P-selectin mediated inflammation [4]: inhibiting short-term P-selectin mediated inflammation | anti-inflammatory activity in vivo (inflammation): anti-inflammatory activity in vivo | published Stamper-Woodruff data compared with the present ones [3]: quite similar to the present ones | decrease of lymphocyte adhesion / prevented L-selectin-dependent lymphocyte binding ([1]; at 0.5 μM): 39% | inhibition of lymphocyte binding to PTCE (in words) [1]: able to inhibit the lymphocyte binding to PTCE significantly

CC(=O)NC1C(O)OC(CO)C(OC2OC(CO)C(O)C(OC3OC(CO)C(OC4OC(CO)C(O)C(OC5OC(CO)C(O)C(O)C5O)C4O)C(O)C3NC(C)=O)C2O)C1O (stereo not drawn) [Galα1-3Galβ1-4GlcNAcβ1-3Galβ1-4GlcNAc]
inhibition of mouse sperm adhesion to eggs [5]: does not
